Consider three compounds from patent publication US9751889B2 (CRYSTAL PHARMATECH INC., priority 2013, dated 2017).

Data set [1] in a line: physchem. As to conditions: for Solubility / solubility at 1 h / solubility at 4 h / solubility at 24 h: RT; for Solubility: listed as WO2013184572A1 Form A; for solubility at 1 h / solubility at 4 h / solubility at 24 h: thermodynamic from solid. How it is done:
2. Add 3 mL of bio-relevant medium into each vial.
3. Cap the vials and keep all the suspension samples stirring at RT (room temperature) using a rolling incubator at a rate of 25 r/min.
4. Sample at 1 h, 4 h and 24 h respectively. About 0.6 mL aliquot of the suspension is transferred per time from solubility vial into a centrifuge filtration tube (pore size of 0.45 μm).
5. Centrifuge filtration tubes at a rate of 8500 rpm for 3 minutes at RT, collect 0.2 mL of supernatant for HPLC quantification determination and collect the rest of solution for pH measurement, and separate the solid for XRPD characterization.

For data set [2] the following is noted: cited from earlier work.
For data set [3] the following is noted: DVS, 25° C. How it is done: Dynamic Vapor Sorption (DVS)
Dynamic Vapor Sorption (DVS) was measured via a SMS (Surface Measurement Systems) DVS Intrinsic. The relative humidity at 25° C. were calibrated against deliquescence point of LiCl, Mg(NO3)2 and KCl. Typical Parameters for DVS test are listed below.

The conditions of data set [4]: dish open, 180 days; for Chemical purity: HPLC; for Final form: XRPD. How it is done:
The chemical and physical stabilities of the samples were evaluated by high performance liquid chromatography (HPLC) and XRPD.

Each structure is given as a SMILES string. In brackets after ≈: the same amount, converted by molar mass. Where two headings read alike, the source gives them in different places.

In general, Solubility refers to how much of the substance goes into solution per volume. Consider `C=CC(=O)N1CCC[C@@H](n2nc(-c3ccc(Oc4ccccc4)cc3)c3c(N)ncnc32)C1` [Form A, 1-[(3R)-3-[4-amino-3-(4-phenoxyphenyl)-1H-pyrazolo [3,4-d]pyrimidin-1-yl]piperidin-1-yl]prop-2-en-1-one, reference compound], for which the Solubility in data set [1] (FeSSIF, time point 1 h) worked out at 100 µg/mL (≈ 227 µM); in data set [1] (FeSSIF, time point 4 h), 110 µg/mL (≈ 250 µM); in data set [1] (FeSSIF, time point 24 h), 130 µg/mL (≈ 295 µM); in data set [1] (SGF, time point 1 h), 360 µg/mL (≈ 817 µM); in data set [1] (SGF, time point 4 h) it was 390 µg/mL (≈ 885 µM); in data set [1] (SGF, time point 24 h) it was 380 µg/mL (≈ 863 µM). Also, the Solubility in data set [2] (pH=8) is 13 µg/mL (≈ 29.5 µM).

Consider `C=CC(=O)N1CCC[C@@H](n2nc(-c3ccc(Oc4ccccc4)cc3)c3c(N)ncnc32)C1` [Form B, 1-[(3R)-3-[4-amino-3-(4-phenoxyphenyl)-1H-pyrazolo [3,4-d]pyrimidin-1-yl]piperidin-1-yl]prop-2-en-1-one], for which the Solubility in data set [2] (pH=7.42) is 9.6 µg/mL (≈ 21.8 µM).

A word on the solubility: it is the concentration that dissolves in the medium under given conditions. A high value points to much dissolved substance. Consider `C=CC(=O)N1CCC[C@@H](n2nc(-c3ccc(Oc4ccccc4)cc3)c3c(N)ncnc32)C1` [Form I, 1-[(3R)-3-[4-amino-3-(4-phenoxyphenyl)-1H-pyrazolo [3,4-d]pyrimidin-1-yl]piperidin-1-yl]prop-2-en-1-one], for which, in data set [1] (FeSSIF and SGF), the “Solubility in comparison to crystalline Form A (WO2013184572A1)” value is listed as “higher solubility”. Also, the solubility at 1 h in data set [1] (fed state simulated intestinal fluid (FeSSIF), fessif, time point 1 h) is 150 µg/mL (≈ 341 µM); in data set [1] (simulated gastric fluid (SGF), simulated gastric fluid, SGF, time point 1 h), 500 µg/mL (≈ 1140 µM). For the same compound, the solubility at 4 h in data set [1] (fed state simulated intestinal fluid (FeSSIF), fessif, time point 4 h) was 160 µg/mL (≈ 363 µM); in data set [1] (simulated gastric fluid (SGF), simulated gastric fluid, SGF, time point 4 h), 500 µg/mL (≈ 1140 µM). Besides, the solubility at 24 h is 160 µg/mL (≈ 363 µM) in data set [1] (fed state simulated intestinal fluid (FeSSIF), fessif, time point 24 h) and 480 µg/mL (≈ 1090 µM) in data set [1] (simulated gastric fluid (SGF), simulated gastric fluid, SGF, time point 24 h). For the same compound, the “Water uptake under 80% RH” value in data set [3] (80% RH) came out at 0.19%; in data set [3] (80% RH, listed as Ibrutinib Form I), 0.19%. Moreover, in data set [3] (95% RH), the “Water uptake under 95% RH” value is 0.48%. Further, the “Hygroscopicity (European pharmacopoeia criteria)” value in data set [3] (80% RH) is “non-hygroscopic”. The Chemical purity in data set [4] (25° C./60% RH) and in data set [4] (40° C./75% RH) was 98.98% in each case. Besides, the Final form result in data set [4] (25° C./60% RH) and in data set [4] (40° C./75% RH) was “Form I” in each case.
